Measurements reported in ChEMBL document CHEMBL1155860, “Structure-activity relationship study of bone morphogenetic protein (BMP) signaling inhibitors” (Bioorg Med Chem Lett, 2008).

target: T1, Bone morphogenetic protein 4 (Homo sapiens, UniProt P12644); experiment: Inhibition of BMP4-induced phosphorylation of SMAD 1/5/8 by cytoblot cellular ELISA; conditions: not given
T1 sequence (P12644 whole entry): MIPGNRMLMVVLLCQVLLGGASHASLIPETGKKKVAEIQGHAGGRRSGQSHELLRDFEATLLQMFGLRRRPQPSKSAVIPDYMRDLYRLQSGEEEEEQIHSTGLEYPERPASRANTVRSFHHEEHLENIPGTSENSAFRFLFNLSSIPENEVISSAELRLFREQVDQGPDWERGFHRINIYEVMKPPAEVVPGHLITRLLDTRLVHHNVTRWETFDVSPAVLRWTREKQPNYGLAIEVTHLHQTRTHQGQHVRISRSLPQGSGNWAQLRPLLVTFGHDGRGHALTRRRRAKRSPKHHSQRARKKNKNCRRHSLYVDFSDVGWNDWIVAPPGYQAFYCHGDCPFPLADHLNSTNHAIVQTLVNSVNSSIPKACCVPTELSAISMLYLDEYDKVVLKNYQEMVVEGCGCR

Going from `c1cncc(-c2cnn3cc(-c4ccc(OCCN5CCCCC5)cc4)cnc23)c1` to `c1cc(-c2cnn3cc(-c4ccc(OCCN5CCCCC5)cc4)cnc23)ccn1` [DORSOMORPHIN], the IC50 falls from > 20000 nM to 430 nM.

First: c1cc(-c2cnn3cc(-c4ccc(OCCN5CCOCC5)cc4)cnc23)ccn1
Second: CN1CCN(CCOc2ccc(-c3cnc4c(-c5ccncc5)cnn4c3)cc2)CC1
The IC50 of the first is 4.4-fold higher: 2000 nM for the first, 450 nM for the second. The second is the more potent here.

Going from `COc1ccc(-c2cnc3c(-c4ccncc4)cnn3c2)cc1` to `CCN(CC)CCOc1ccc(-c2cnc3c(-c4ccncc4)cnn3c2)cc1`, the IC50 falls from 6500 nM to 500 nM (13-fold). The second is the more potent here.

`COc1ccc(-c2cnc3c(-c4cnc5ccccc5c4)cnn3c2)cc1` and `COc1ccc(-c2cnc3c(-c4ccc5ncccc5c4)cnn3c2)cc1` cannot be ordered by IC50: > 20000 nM for the first, > 20000 nM for the second.

`c1cc2ncc(-c3ccc(OCCN4CCCCC4)cc3)cn2n1` and `c1ccc(-c2cnn3cc(-c4ccc(OCCN5CCCCC5)cc4)cnc23)cc1` cannot be ordered by IC50: > 20000 nM for the first, > 20000 nM for the second.

Going from `COc1ccc(-c2cnc3c(-c4cccc5cccnc45)cnn3c2)cc1` to `COc1ccc(-c2cnc3c(-c4cccc5ncccc45)cnn3c2)cc1`, the IC50 falls from > 20000 nM to 3000 nM.

Going from `Oc1ccc(-c2cnc3c(-c4ccnc5ccccc45)cnn3c2)cc1` to `COc1ccc(-c2cnc3c(-c4ccnc5ccccc45)cnn3c2)cc1`, the IC50 falls from 250 nM to 55 nM (4.5-fold).

Compared with `COc1ccc(-c2cnc3c(-c4ccnc5ccccc45)ccn3c2)cc1`, `COc1ccc(-c2ccc3c(-c4ccnc5ccccc45)cnn3c2)cc1` is lower in IC50: > 20000 nM for the first, 150 nM for the second. The second is the more potent here.

Going from `c1ccc2c(-c3ccn4cc(-c5ccc(OCCN6CCCCC6)cc5)cnc34)ccnc2c1` to `c1ccc2c(-c3cnn4cc(-c5ccc(OCCN6CCCCC6)cc5)cnc34)ccnc2c1`, the IC50 falls from 2600 nM to 90 nM (29-fold). The second is the more potent here.

`c1ccc2c(-c3cnn4cc(-c5ccc(N6CCNCC6)cc5)ccc34)ccnc2c1` and `c1ccc2c(-c3cnn4cc(-c5ccc(N6CCNCC6)cc5)cnc34)ccnc2c1` are within 1.5-fold of each other in IC50: 5 nM for the first, 4.9 nM for the second.

Compared with `CN1CCN(CCOc2ccc(-c3cnc4c(-c5ccncc5F)cnn4c3)cc2)CC1`, `CN1CCN(CCOc2ccc(-c3cnc4c(-c5ccnc6ccccc56)cnn4c3)cc2)CC1` is 330-fold lower in IC50: 3300 nM for the first, 10 nM for the second. The second is the more potent here.

Compared with `c1cc(-c2cnc3c(-c4ccnc5ccccc45)cnn3c2)cc(N2CCNCC2)c1`, `Clc1ccc2c(-c3cnn4cc(-c5ccc(N6CCNCC6)cc5)cnc34)ccnc2c1` is 57-fold lower in IC50: 20000 nM for the first, 350 nM for the second.

Compared with `Cc1nn2cc(-c3ccc(OCCN4CCN(C)CC4)cc3)cnc2c1-c1ccncc1`, `CN1CCN(CCOc2cccc(-c3cnc4c(-c5ccncc5)cnn4c3)c2)CC1` is lower in IC50: > 20000 nM for the first, 4500 nM for the second. The second is the more potent here.

Going from `c1ccc(-c2cnc3c(-c4ccnc5ccccc45)cnn3c2)cc1` to `c1ccc2c(-c3cnn4cccnc34)ccnc2c1`, the IC50 rises from 750 nM to 5000 nM (6.7-fold).

Going from `COC(=O)c1cc(-c2ccnc3ccccc23)c2ncc(-c3ccc(OC)cc3)cn12` to `COc1ccc(-c2cnc3c(-c4ccnc5cc(Cl)ccc45)cnn3c2)cc1`, the IC50 falls from > 20000 nM to 500 nM. The second is the more potent here.

system: not listed separately; experiment: Metabolic stability in mouse liver microsomes assessed as half life; type: ADME, Microsome; conditions: not given

Work on `CN1CCN(CCOc2ccc(-c3cnc4c(-c5ccnc6ccccc56)cnn4c3)cc2)CC1` yielded a half-life of 13.3 min.

system: not listed separately; experiment: Metabolic stability in mouse liver microsomes assessed as intrinsic clearance; type: ADME, Microsome; conditions: not given

`CN1CCN(CCOc2ccc(-c3cnc4c(-c5ccnc6ccccc56)cnn4c3)cc2)CC1` showed a microsomal CLint of 104 µL/min/mg.

system: not listed separately; experiment: Tmax in male C57B16 mouse at 3.0 mg/kg, ip; type: ADME, organism-based; parameters: dose 3 mg/kg, route intraperitoneal; conditions: in vivo

With `c1ccc2c(-c3cnn4cc(-c5ccc(N6CCNCC6)cc5)cnc34)ccnc2c1` the Tmax was < 5 min.

system: not listed separately; experiment: Tmax in female C57B16 mouse at 3.0 mg/kg, ip; type: ADME, organism-based; parameters: dose 3 mg/kg, route intraperitoneal; conditions: in vivo

With `c1ccc2c(-c3cnn4cc(-c5ccc(N6CCNCC6)cc5)cnc34)ccnc2c1` the Tmax was < 5 min.

system: not listed separately; experiment: Half life in female C57B16 mouse at 3.0 mg/kg, ip; type: ADME, organism-based; parameters: dose 3 mg/kg, route intraperitoneal; conditions: in vivo

`c1ccc2c(-c3cnn4cc(-c5ccc(N6CCNCC6)cc5)cnc34)ccnc2c1` gave a half-life of 96 min.
